These results are taken from US20260176290A1, “INHIBITORS OF KRAS(G12D)” (Ranok Therapeutics (Hangzhou) Co. Ltd., priority 2022, published 2026).

Where only a bound is given, the exact number is not on record here.

By IC50 is commonly meant the concentration that inhibits the measured activity by half. Broadly, the bioavailability is the share of a dose that reaches the circulation, judged against a reference dose that is usually intravenous. High values mean good availability, low ones poor availability.

T1 sequence (P01116 1-188 isoform P01116-2 G12D): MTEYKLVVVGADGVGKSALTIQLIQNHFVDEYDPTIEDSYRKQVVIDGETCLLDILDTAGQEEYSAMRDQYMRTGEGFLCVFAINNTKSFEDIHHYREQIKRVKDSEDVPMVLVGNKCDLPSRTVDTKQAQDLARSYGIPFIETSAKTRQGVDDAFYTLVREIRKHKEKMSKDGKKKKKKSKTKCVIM

For the first data set, the system named is ASPC1 pancreatic adenocarcinoma cells [homozygous G12D]. Put plainly: Cancer cell line proliferation (CellTiter-Glo), ASPC1. The data set is classed as cell-based. The settings on record: Homo sapiens, ASPC-1 cells, 72 hr, read-out: CTG(IC50), ABS-72 H(nM) ASPC-1. The protocol:
(§1) The following cancer cell lines were employed: AGS gastric carcinoma [heterozygous G12D] (ATCC, CRL-1739); A-427 lung carcinoma [heterozygous G12D] (ATCC, HTB-53); ASPC1 pancreatic adenocarcinoma [homozygous G12D] (ATCC, CRL-1682) and SW1990 pancreatic adenocarcinoma [homozygous G12D] (ATCC CRL-2172). Cell lines were cultured essentially according to ATCC recommendations.
(§2) AGS, A-427, ASPC1, SW1990, and GP2D cells were plated in 96-well tissue culture plates at 4,000 cells/well and incubated at 37° C./5% CO2 for 72 hr in 100 μl of media. 3-fold serial dilutions of each test compound were prepared ranging from 20 μM to 1.02 nM. Each cell line was then treated with test compounds at various concentrations with a final concentration of 0.5% DMSO/well, and then incubated at 37° C./5% CO2 for 72 hr. 100 μl of CellTiter-Glo® Reagent (Promega Corporation, Madison, WI) was added to each well and processed according manufacturer's protocol. Results were analyzed and IC50 5 values were calculated in GraphPad 7 software.
(In general: ATP-based viability assays read luminescence as a measure of living cells.)
On to `C#Cc1c(F)ccc2cc(O)cc(-c3ncc4c(N5CC6CCC(C5)N6)nc(OCC5(CN6CCC(C(F)(F)F)CC6)CC5)nc4c3F)c12` [Example 14], for which the IC50 is below 100 nM.
For `C#Cc1c(F)ccc2cc(O)cc(-c3ncc4c(N5CC6CCC(C5)N6)nc(OCC5(CN6CC7C(C#N)C7C6)CC5)nc4c3F)c12` (stereo not drawn) [Example 44], the IC50 was below 100 nM.
Take `C#Cc1c(F)ccc2cc(O)cc(-c3nc(OC)c4c(N5CC6CCC(C5)N6)nc(OCC5(CN6CCC(F)CC6)CC5)nc4c3F)c12` [Example 19]: the IC50 is below 100 nM.

Test system in a further data set: not listed separately
In words: in vivo. The following applies: male, CD-1, mouse, po.
Description: (§3) CD-1 mice were randomly assigned to 6 groups with 3 male mice in each compound group. […] Compounds were orally administered (PO) in a single dose to each mouse in its group. Blood samples were taken within 72 hours. Bioavailability (F %) was determined and by liquid chromatography-mass spectrometry (LC-MS/MS).
In turn, `C#Cc1c(F)ccc2c(F)c(O)cc(-c3nc(OC)c4c(N5CC6CCC(C5)N6)nc(OCC5(CN6CC7CC7C6)CC5)nc4c3F)c12` (stereo not drawn) [Example 168] came in with a bioavailability of 13.6%.
`C#Cc1cccc2cc(O)cc(-c3ncc4c(N5CC6CCC(C5)N6)nc(OCC5(CN6CC7C(C6)C7(F)F)CC5)nc4c3F)c12` (stereo not drawn) [Example 100] registered a bioavailability of 1.7%.
In turn, `C#Cc1c(F)ccc2cc(O)cc(-c3nc(OC)c4c(N5CC6CCC(C5)N6)nc(OCC5(CN6CC7C(F)C7C6)CC5)nc4c3F)c12` (stereo not drawn) [Example 155] registered a bioavailability of 8.03%.
In turn, `C#Cc1c(F)ccc2cc(O)cc(-c3nc(OC)c4c(N5CC6CCC(C5)N6C(=O)OCOC(=O)C(C)C)nc(OCC5(CN6CC7CC7C6)CC5)nc4c3F)c12` (stereo not drawn) [Example 148] returned a bioavailability of 6.8%.
Turning to `[2H]C([2H])([2H])Oc1nc(-c2cc(O)cc3ccc(F)c(C#C)c23)c(F)c2nc(OCC3(CN4CC5C(F)C5C4)CC3)nc(N3CC4CCC(C3)N4)c12` (stereo not drawn) [Example 167], the bioavailability turned out to be 7.14%.
For the compound `C#Cc1c(F)ccc2cc(O)cc(-c3nc(OC)c4c(N5CC6CCC(C5)N6C(=O)OC(C)OC(C)=O)nc(OCC5(CN6CC7CC7C6)CC5)nc4c3F)c12` (stereo not drawn) [Example 146], the bioavailability was 8.3%.
`C#Cc1c(F)ccc2cc(O)cc(-c3ncc4c(N5CC6CCC(C5)N6)nc(OCC5(CN6CC7C(F)C7C6)CC5)nc4c3F)c12` (stereo not drawn) [Example 149]: the bioavailability came out at 12.9%.
The compound `C#Cc1c(F)ccc2cc(N)cc(-c3nc(OC)c4c(N5CC6CCC(C5)N6)nc(OCC5(CN6CC7CC7C6)CC5)nc4c3F)c12` (stereo not drawn) [Example 184] gave a bioavailability of 5.75%.
`COc1nc(-c2cc(N)cc(Cl)c2C(F)(F)F)c(F)c2nc(OCC3(CN4CC5CC5C4)CC3)nc(N3CC4CCC(C3)N4)c12` (stereo not drawn) [Example 165] returned a bioavailability of 13.8%.

For the next data set, the system named is A-427 lung carcinoma cells [heterozygous G12D]. In words: Cancer cell line proliferation (CellTiter-Glo), A-427. In kind it is cell-based. The following applies: Homo sapiens, A427 cells, 72 hr, read-out: CTG(IC50), ABS-72 H(nM) A427. The protocol: as §1, §2
`C#Cc1c(F)ccc2cc(O)cc(-c3ncc4c(N5CC6CCC(C5)N6)nc(OCC5(CN6CCC(C(F)(F)F)CC6)CC5)nc4c3F)c12` [Example 14]: the IC50 was below 100 nM.
On the same count and under the same terms, under `C#Cc1c(F)ccc2cc(O)cc(-c3ncc4c(N5CC6CCC(C5)N6)nc(OCC5(CN6CC7C(C#N)C7C6)CC5)nc4c3F)c12` (stereo not drawn) [Example 44] stands 100 to 1000 nM.
In the case of `C#Cc1c(F)ccc2cc(O)cc(-c3nc(OC)c4c(N5CC6CCC(C5)N6)nc(OCC5(CN6CCC(F)CC6)CC5)nc4c3F)c12` [Example 19], the IC50 was below 100 nM.

Test system in another data set: not listed separately
In words: Oral bioavailability in CD-1 mice. The following applies: male, CD-1, mouse, blood.
Description: as §3
For the compound `C#Cc1c(F)ccc2cc(O)cc(-c3ncc4c(N5CC6CCC(C5)N6)nc(OCC5(CN6CCC(C(F)(F)F)CC6)CC5)nc4c3F)c12` [Example 14], the bioavailability came to 5.81%.
Same read-out and setting: under `C#Cc1c(F)ccc2cc(O)cc(-c3ncc4c(N5CC6CCC(C5)N6)nc(OCC5(CN6CC7C(C#N)C7C6)CC5)nc4c3F)c12` (stereo not drawn) [Example 44] stands 2.38%; under `C#Cc1c(F)ccc2cc(O)cc(-c3nc(OC)c4c(N5CC6CCC(C5)N6)nc(OCC5(CN6CCC(F)CC6)CC5)nc4c3F)c12` [Example 19], 9.39%.

Another data set deals with SW1990 pancreatic adenocarcinoma cells [homozygous G12D]. Put plainly: Cancer cell line proliferation (CellTiter-Glo), SW1990. In kind it is cell-based. The following applies: Homo sapiens, 72 hr, read-out: CTG(IC50), ABS-72 H(nM) SW1990. As for the experimental part:
as §1, §2
As to `C#Cc1c(F)ccc2cc(O)cc(-c3ncc4c(N5CC6CCC(C5)N6)nc(OCC5(CN6CCC(C(F)(F)F)CC6)CC5)nc4c3F)c12` [Example 14], the IC50 was below 100 nM.
Consider `C#Cc1c(F)ccc2cc(O)cc(-c3ncc4c(N5CC6CCC(C5)N6)nc(OCC5(CN6CC7C(C#N)C7C6)CC5)nc4c3F)c12` (stereo not drawn) [Example 44], for which the IC50 is below 100 nM.
For `C#Cc1c(F)ccc2cc(O)cc(-c3nc(OC)c4c(N5CC6CCC(C5)N6)nc(OCC5(CN6CCC(F)CC6)CC5)nc4c3F)c12` [Example 19], the IC50 is below 100 nM.

Another data set concerns the target T1, KRAS (G12D)/SOS1 (Homo sapiens, UniProt P01116, G12D).
T1 construct: purchased Cisbio 63ADK000CB17PEH
Put plainly: KRAS (G12D)/SOS1 homogeneous time-resolved fluorescence (HTRF) assay. The data set is classed as binding. The following applies: absence of GTP, 4° C. for 3 hr. The protocol: 3-fold serial dilutions of each test compound were prepared ranging from 20 μM to 1.02 nM. The test compound was mixed and incubated with reaction components, incubated in a sealed plate at 4° C. for 3 hr and fluorescence was measured using a PerkinElmer Envision plate reader. […]
On the technique in general: TR-FRET usually uses a lanthanide donor and a delayed reading to cut background.
Turning to `C#Cc1c(F)ccc2cc(O)cc(-c3ncc4c(N5CC6CCC(C5)N6)nc(OCC5(CN6CCC(C(F)(F)F)CC6)CC5)nc4c3F)c12` [Example 14], the IC50 is below 100 nM.
`C#Cc1c(F)ccc2cc(O)cc(-c3ncc4c(N5CC6CCC(C5)N6)nc(OCC5(CN6CC7C(C#N)C7C6)CC5)nc4c3F)c12` (stereo not drawn) [Example 44] registered an IC50 below 100 nM.
In the case of `C#Cc1c(F)ccc2cc(O)cc(-c3nc(OC)c4c(N5CC6CCC(C5)N6)nc(OCC5(CN6CCC(F)CC6)CC5)nc4c3F)c12` [Example 19], the IC50 is below 100 nM.

The subject of another data set is AGS gastric carcinoma cells [heterozygous G12D]. Put plainly: Cancer cell line proliferation (CellTiter-Glo), AGS. In kind it is cell-based. The settings on record: Homo sapiens, 72 hr, read-out: CTG(IC50), ABS-72 H(nM) AGS. The protocol: as §1, §2
Turning to `C#Cc1c(F)ccc2cc(O)cc(-c3ncc4c(N5CC6CCC(C5)N6)nc(OCC5(CN6CCC(C(F)(F)F)CC6)CC5)nc4c3F)c12` [Example 14], the IC50 was below 100 nM.
As for `C#Cc1c(F)ccc2cc(O)cc(-c3ncc4c(N5CC6CCC(C5)N6)nc(OCC5(CN6CC7C(C#N)C7C6)CC5)nc4c3F)c12` (stereo not drawn) [Example 44], the IC50 is below 100 nM.
Turning to `C#Cc1c(F)ccc2cc(O)cc(-c3nc(OC)c4c(N5CC6CCC(C5)N6)nc(OCC5(CN6CCC(F)CC6)CC5)nc4c3F)c12` [Example 19], the IC50 is below 100 nM.
